Test results reported in patent US8334000B2, “Anti-angiogenic extracts from pomegranate” (priority 2003, dated 2012).
Like-named read-outs stand apart in the source and are kept apart here.

Key:
[1] = test system: human placental vein discs; experiment: Human placental vein angiogenesis model (HPVAM): initiation and angiogenic index; assay type: cell-based; conditions: for inhibition at 0.01 % strength: 0.01% w/v
From the text: The Human Placental Vein Angiogenesis Model: Discarded human placentas were obtained anonymously with prior approval of an Institutional Review Board. The placental veins were dissected free from the placenta and adventitial tissue. The trimmed vein segment was opened longitudinally to produce a flat film of venous tissue of full thickness. Vein discs (2 mm diameter) were created with a sterile skin punch (Miltex Instrument Company, Inc.; Lake Success, N.Y.). The discs were placed into wells of a standard 96-well plate (Corning Inc., Corning, N.Y.). The vein disc harvest was completed within three hours of delivery to optimize endothelial cell viability. Vein discs from a single placenta were distributed equally among all treatment groups to ensure randomization. Each well was preloaded with a human thrombin solution (0.05 IU in 2.0 μl), and allowed to evaporate to dryness before use. All chemicals were purchased from Sigma Chemical Company (St. Louis, Mo.) unless otherwise indicated.
Following the placement of the 2 mm vein disc in the bottom of each thrombin-containing well, the disc was covered with 100 μl of a clot-forming medium, comprising 3 mg/ml fibrinogen and 0.5% Σ-amino caproic acid dissolved in Human Placental Vein Angiogenesis Media (HPVAM). HPVAM is made of Medium 199 (Vitrogen Corporation, Carlsbad, Calif.), an antibiotic/antimycotic solution (100 U/ml penicillin, 100 U/ml streptomycin sulfate, and 0.25 μg/ml amphotericin(3; Vitrogen Corporation), and endothelial growth medium (25%) (Vitrogen Corporation). The mixture was allowed to clot by incubating in 5% CO2, 95% air at 37° C. in a humidified incubator. After the medium-containing placental discs had clotted, the vein-containing clot was supplemented with 100 μl HPVAM containing 20% fetal bovine serum (Vitrogen Corporation). The total well volume was 200 μl.
Evaluation of Angiogenesis: Visual evaluation of all wells was performed at 20× or 40× magnification with a standardized reference grid by an unbiased observer using an inverted microscope. Every other day, discs were graded using two criteria: the initiation of sprouting vessels (initiation) and the degree of sprouting (angiogenic index). Initiation of an angiogenic response was defined as the development of three or more vessel sprouts around the periphery of the vein disc. Initiation occurred in 50-95% of the wells, usually 4 to 6 days after establishment of the clots. Initiation was expressed as the percent of the total wells plated that indicated an angiogenic response.
The angiogenic index (AI) was defined using a subjective visual rating system. Each disc was visually rated for the development of vessel sprouting in each of four quadrants. Each of the four quadrants for each disc was rated on a 0-4 scale, depending on the number of sprouts (density) and the length of sprouts. Scores for all four quadrants were summed to express the AI, a numerical rating that could range from 0 to 16. A score of zero indicated no vessel growth in any of the four quadrants, while a score of 16 indicated long, dense angiogenic vessel growth in all four quadrants. For most experiments, the AI was expressed as a mean plus/minus a standard error of the mean.
To separate the process of initiation from that of proliferation, the AI was analyzed both with zero AI data points and without zero AI data points. […] This lack of initiation could have been due either to the effect of the experimental compound, to the insensitivity of the vein disc to stimulation in the culture conditions, or to the vein disc not being viable. In previous experiments, we have shown that only a small percent, about 2 to 3%, of vein discs are not viable (data not shown). Thus, a graph of AI with zero AI data points indicates the complete angiogenic response of initiation and growth under the experimental conditions. However, a graph of AI without the zero AI data points indicates only growth of the vessels after initiation. […]

human fat tissue = experiment: Human fat tissue angiogenesis assay; assay type: cell-based; conditions: 0.01 M and 0.001 M, data not shown
Description: To test the angiogenic activity of plant extracts in another tissue, the refined fraction PUG100 was tested for its anti-angiogenic activity in human fat tissue taken from patients having gastric bypass surgery (Vista Surgical Hospital, Baton Rouge, La.). The human fat tissue assay was conducted very similar to that described in Example 1 for human placental vein tissue. […] (FIG. 25a). Immediately after the addition of the refined fraction PUG100, angiogenic vessel growth started to diverge. The control wells continued their growth, but the PUG100 treated wells stopped further growth. […] (Data not shown).

[2] = 5% gallic acid, oral, 13 wks; cited from earlier work
[3] = Homo sapiens, 336 h, 14 days in culture, FIG. 12a, read-out: inhibition of angiogenic initiation compared to the control
[4] = Homo sapiens, FIG. 12b, read-out: inhibition of angiogenesis compared with the control (mean AI with the zero points)
[5] = Homo sapiens, FIG. 12b, read-out: inhibition of angiogenic growth compared with the control (mean AI without the zero points)
[6] = highest concentration tested (2×10^−2M; octyl gallate 2×10^−3 M), FIG. 13a

| Structure (SMILES) | inhibition at 0.01 % strength [1, 3] [%] | inhibition at 0.01 % strength [1, 4] [%] | inhibition at 0.01 % strength [1, 5] [%] | initiation of angiogenesis [1, 6] | also measured |
| --- | --- | --- | --- | --- | --- |
| CCCCOC(=O)c1cc(O)c(O)c(O)c1 [butyl gallate] | 85 | 96 | 74 | totally blocked |  |
| O=C(O)c1cc(O)c(O)c(O)c1 [gallic acid, 3,4,5-trihydroxy benzoic acid] |  |  |  | totally blocked | initiation of angiogenesis ([1]; 0.025%, added after six days, FIG. 5a): totally inhibited; initiation of angiogenesis ([1]; 10^−3 M, FIG. 6a): totally inhibited; mean AI with the zero points included (initiation and proliferation) ([1]; 10^−3 M, FIG. 6b): totally inhibited angiogenesis; Percent initiation ([1]; 10^−4 M, FIG. 6a): 56%; Percent initiation ([1]; 10^−5 M, FIG. 6a): 50%; concentrations at which the inhibitory effect stopped (mean AI with zero points) ([1]; FIG. 6b): ≤ 10^−6 M; concentrations that showed inhibition (mean AI without the zero points, proliferation only) ([1]; FIG. 6c): greater than 10^−4 M; inhibition at 25 µM ([1]; Homo sapiens, read-out: estimated inhibition (IC19) if gallic acid were the only active compound, 2.5×10^−5 M): 19%; Percent initiation ([1]; up to 10^−10 M, FIG. 6a): 33%; initiation of angiogenesis (human fat tissue): inhibited initiation of angiogenesis; body weight gain [2]: suppress body weight gain |
| COC(=O)c1cc(O)c(O)c(O)c1 [methyl gallate] | 38 | 71 | 52 |  |  |
| CCCCCCCCOC(=O)c1cc(O)c(O)c(O)c1 [octyl gallate] | 85 | 97 | 83 | totally blocked | lowest concentration indicating inhibition of angiogenesis [1]: 200 µM; initiation of angiogenesis ([1]; 2×10^−4 M, FIG. 13a): totally blocked; mean AI with the zero points included (initiation and proliferation) ([1]; 2×10^−4 M, FIG. 13b): effective |
| CCCOC(=O)c1cc(O)c(O)c(O)c1 [propyl gallate] | 46 | 61 | 28 |  |  |
| O=C(OC[C@H]1O[C@@H](OC(=O)c2cc(O)c(O)c(OC(=O)c3cc(O)c(O)c(O)c3)c2)[C@H](OC(=O)c2cc(O)c(O)c(OC(=O)c3cc(O)c(O)c(O)c3)c2)[C@@H](OC(=O)c2cc(O)c(O)c(OC(=O)c3cc(O)c(O)c(O)c3)c2)[C@@H]1OC(=O)c1cc(O)c(O)c(OC(=O)c2cc(O)c(O)c(O)c2)c1)c1cc(O)c(O)c(OC(=O)c2cc(O)c(O)c(O)c2)c1 [tannic acid, Tannic acid] |  |  |  |  | initiation of angiogenesis ([1]; 0.1% in HPVAM, FIG. 8a): inhibited the initiation of angiogenesis even better than the positive heparin-steroid control |
